According to US20220305144A1, “RADIOLIGANDS FOR IMAGING THE ID01 ENZYME” (Bristol-Myers Squibb Company, priority 2016, published 2022):
“Also recorded” adds a separate entry of the source.

Experiments:
[1] = biological target: T1, IDO1 (Mus musculus, UniProt P28776); experiment: Comparison of tracer uptake in high (M109) and low (CT26) IDO1 expressing tumor models (Example 8); assay type: in vivo; settings: BALB/c mice given vehicle for 5 days, tracer i.v. 1 hour before PET, CT26 low IDO1 expression
T1 construct: The M109 tumor model is generated from a murine lung carcinoma cell line and expresses high levels of IDO1; from tissue; host or cells: subcutaneous M109 (murine lung carcinoma) tumours in BALB/c mice, imaged in vivo
Description: In order to compare the ability to differentiate between differences in expression levels of IDO1 we imaged an additional mouse model carrying CT26 tumors. The CT26 tumor model is generated from a murine colorectal carcinoma cell line and expresses lower levels of IDO1 than the M109 model.

[2] = PET biodistribution in non-human primate (Example 9); assay type: in vivo; settings: male cynomolgus monkey, 1.2 mCi i.v., 5 full body PET scans
Protocol: A male cynomolgus monkey (3.5 kg) was anesthetized via a cocktail of 0.02 mg/kg Atropine, and 5 mg/kg Telazol, 0.01 mg/kg Buprenorphine and maintained with 1-2% isoflurane for the duration of the study. Body temperature was maintained at ˜37° C. using an external circulating water bed to prevent hypothermia during imaging. The monkey was intubated and a saphenous vein catheter was inserted to allow for radiotracer injection. […] The axial field of view in the PET system is 7.6 cm. With this limitation, images were acquired over 7 distinct bed positions to cover the full body with an overlap of 1.5 cm between beds. Prior to emission imaging a 10 minute transmission image was acquired for each bed position for attenuation correction of the final PET images, immediately following collection of the final transmission image, the bed was returned to position 1 and the radiotracer was injected via the saphenous vein catheter concurrently with the start of the first emission scan. For emission, a total of 5 full body scans were acquired, using 5 min emission acquisitions for each bed position. Images were reconstructed using a MAP algorithm with attenuation correction. Bed positions were stitched together for a full body image using a stitching software tool developed in house and PET and MRI images were co-registered using AMIDE software. The final images were visually inspected to note areas of high tracer accumulation and evaluate biodistribution and background signal.

[3] = biological target: T1, IDO1; experiment: In-vivo PET imaging in M109 xenograft mice after treatment with the unlabeled IDO1 inhibitor (Example 6); settings: 6, 60, 150 mg/kg PO once daily for 4 or 5 days
Protocol: Dosing and treatment was established based on known pharmacological effect and treatment was administered PO, once daily, for 4 or 5 days. All animals were received a PET scan post-treatment with the last dose of (R)—N-(4-chlorophenyl)-2-((1S,4)-4-(6-fluoroquinolin-4-yl)cyclohexyl)propanamide or vehicle administered 2 hours before PET imaging. […] The exact injected dose was calculated by subtracting the decay corrected activity of the residual in the syringe after injection from the total measured dose in the syringe prior to injection. For PET imaging, the mice were anesthetized with isoflurane and placed into a custom animal holder with capacity for 4 animals. Body temperature was maintained with a heating pad and anesthesia was maintained with 1.5% isoflurane for the duration of the imaging PET imaging was performed on a dedicated microPET® F120™ scanner and a F220™ scanner (Siemens Preclinical Solutions, Knoxville, Tenn.). A 10 minute transmission scan was performed using a ^57Co source for attenuation correction of the final PET images and followed by a 10 min static emission scan. Either before or after PET imaging a CT scan (X-SPECT, Gamma Medica) or MRI scan (Bruker) was performed for anatomical orientation during image analysis. PET images were reconstructed using a maximum a posteriori (MAP) algorithm with attenuation correction using the collected transmission images. Image analysis was performed using the image analysis software AMIDE PET images were co-registered with their corresponding CT or MRI images and regions of interest (ROIs) were manually drawn around tumor boundaries and muscle using the CT or MRI images as the anatomical guidelines. The outcome measure percentage injected dose/g tissue (% ID/g) was obtained from the ROIs volume and the calculated injected activity decay corrected to the beginning of the emission scan.

[4] = biological target: T1, IDO1; experiment: In-vivo PET imaging in M109 xenograft mice at baseline and after treatment with an IDO1 inhibitor (Example 7); settings: 6, 60, 150 mg/kg PO once daily for 5 days
Protocol: All mice underwent 2 separate PET scans. The first was a baseline PET scan before treatment began and the second was a post treatment scan with either the IDO1 inhibitor or vehicle. Treatment was administered PO once daily for 5 days with the last dose administered 2 hours prior to the post-treatment PET scan. […] There were no difference in tracer uptake at baseline in the M109 tumors between any of the groups.

[5] = listed as 18F—(R)—N-(4-chlorophenyl)-2-((1S,4S)-4-(6-fluoroquinolin-4-yl)cyclohexyl)propan
[6] = listed as [^18F](R)—N-(4-chlorophenyl)-2-((1S,4S)-4-(6-fluoroquinolin-4-yl)cyclohexyl)prop

T1 sequence (P28776 whole entry): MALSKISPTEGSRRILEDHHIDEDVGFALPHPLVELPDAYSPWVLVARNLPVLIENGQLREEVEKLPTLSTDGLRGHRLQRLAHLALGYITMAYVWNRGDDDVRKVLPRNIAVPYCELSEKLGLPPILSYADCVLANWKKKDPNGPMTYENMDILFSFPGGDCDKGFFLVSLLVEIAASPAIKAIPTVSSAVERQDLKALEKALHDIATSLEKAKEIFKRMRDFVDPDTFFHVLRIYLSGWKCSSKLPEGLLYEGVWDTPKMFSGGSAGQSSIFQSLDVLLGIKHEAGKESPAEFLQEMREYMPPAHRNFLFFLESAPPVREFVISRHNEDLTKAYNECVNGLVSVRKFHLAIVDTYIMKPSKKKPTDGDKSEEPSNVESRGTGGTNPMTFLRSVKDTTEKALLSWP

Background signal in the rest of the body [2, 5]	Areas of tracer accumulation (biodistribution) [2, 6]	Background signal in the rest of the body [2, 6]	SMILES	Tracer uptake (% ID/g) in M109 tumors compared to CT26 tumors [1]	Areas of tracer accumulation (biodistribution) [2, 5]	Tracer uptake (% ID/g) in M109 tumors compared to vehicle ([3]; last dose 2 hours before PET, [18F] tracer i.v. 1 hour before imaging)	Tracer uptake in muscle reference tissue ([3]; muscle used as reference region for non-specific binding)	Tracer uptake in muscle reference tissue, baseline vs post-treatment [4]	Tracer uptake in M109 tumors after treatment, compared to vehicle group and baseline ([4]; last dose 2 hours before post-treatment PET scan)
little to no background	accumulated in the liver and gallbladder	minimal	C[C@@H](C(=O)Nc1ccc(Cl)cc1)[C@H]1CC[C@@H](c2ccnc3ccc([18F])cc32)CC1 [Example 5, [^18F](R)—N-(4-chlorophenyl)-2-((1S, 4S)-4-(6-fluoroquinolin-4-yl)cyclohexyl)propanamide]	higher % ID/g was observed in M109 mouse xenograft tumors compared to % ID/g in CT26 mouse xenograft tumors; also recorded: increased in M109 tumors	accumulated in expected clearance organs such as liver and gallbladder				
			C[C@@H](C(=O)Nc1ccc(Cl)cc1)C1CCC(c2ccnc3ccc(F)cc23)CC1 (stereo partly drawn) [(R)—N-(4-chlorophenyl)-2-((1S,4S)-4-(6-fluoroquinolin-4-yl)cyclohexyl)propanamide]			dose-dependent decrease in tracer uptake; also recorded: dose-dependent displacement of the tracer	no effect on the tracer; also recorded: no effect on the uptake in muscle tissue	unaffected by treatment	dose-dependent decrease in tracer uptake; also recorded: dose-dependent displacement of the tracer
